{
  "source": "patent US20230339968A1",
  "about": "“KRAS Gl2C INHIBITORS” (Eli Lilly and Company, priority 2019, published 2023)",
  "system": "LU99 (lung) xenograft",
  "assay": "In vivo combination efficacy with other targeted therapies, LU99 xenograft model",
  "set-up": "species or system mouse",
  "details": "30 mg/kg QD × 28",
  "text": "A total of six in vivo xenograft or PDX models—four lung models (H358, H1373, LU99, and EL3187 PDX), one colorectal model (SW1463) and one pancreatic model (MiaPaca-2)—are utilized.",
  "data": [
    {"compound": "C=CC(=O)N1CCN2C(=O)c3cc(F)c(-c4ccc(F)c5sc(N)c(C#N)c45)c(Cl)c3OCC[C@H]2C1", "note": "[Example 35, 4-[(13aS)-10-Chloro-8-fluoro-6-oxo-2-prop-2-enoyl-1,3,4,12,13,13a-hexahydropyrazino[2,1-d][1,5]benzoxazocin-9-yl]-2-amino-7-fluoro-benzothiophene-3-carbonitrile]", "values": [
      {"measurement": "Tumor Growth Inhibition (%) and Regression (−%)", "result": 76.2, "unit": "%"}
    ]}
  ]
}
